The target in data set [1] is T1, OAT3 (Homo sapiens, UniProt Q8TCC7).
T1 sequence (Q8TCC7 1-542): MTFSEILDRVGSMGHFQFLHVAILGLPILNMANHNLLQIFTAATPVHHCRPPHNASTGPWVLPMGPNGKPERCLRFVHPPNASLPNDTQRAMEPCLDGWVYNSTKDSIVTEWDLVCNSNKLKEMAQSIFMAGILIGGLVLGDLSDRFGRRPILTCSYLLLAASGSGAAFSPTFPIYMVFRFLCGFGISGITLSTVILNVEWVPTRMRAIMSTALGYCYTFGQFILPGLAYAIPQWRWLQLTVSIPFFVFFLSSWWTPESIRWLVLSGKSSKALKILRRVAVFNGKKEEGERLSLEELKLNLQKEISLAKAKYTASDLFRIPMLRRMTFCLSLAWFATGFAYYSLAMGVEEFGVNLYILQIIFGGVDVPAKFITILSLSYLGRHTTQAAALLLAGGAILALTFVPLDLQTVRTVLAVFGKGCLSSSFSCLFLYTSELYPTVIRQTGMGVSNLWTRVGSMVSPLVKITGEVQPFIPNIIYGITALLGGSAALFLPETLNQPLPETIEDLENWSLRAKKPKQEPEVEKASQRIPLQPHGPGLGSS
Briefly: Inhibition of OAT-mediated fluorescein uptake in ciPTEC-OAT3. As to the method:
(§1) All chemicals were obtained from Sigma, unless stated otherwise. Uptake was stopped by washing three times with ice-cold HBSS (4°C).
(§2) Non-linear regression with variable slope constraining the top to 100% was used to fit the data after background subtraction with GraphPad Prism. Statistics was performed by two-way ANOVA (two-tailed, α = 0.05) using GraphPad Prism as well. All data is presented as mean ± SEM of at least three separate experiments (n = 3) performed in triplicate, unless stated otherwise.

Another data set deals with OCT2 (Homo sapiens, UniProt O15244). The settings on record: ASP+ 1 µM, 60 min, HBSS 37°C; similar IC50 in ciPTEC parent, ciPTEC-OAT1, ciPTEC-OAT3 (p>0.05). The method, then:
Supplementary Figure S1. […] ASP+ uptake (1 […]
µM) by ciPTEC parent, ciPTEC-OAT1 and ciPTEC-OAT3 when co-incubated with OCT2-substrate […]
The lines represent the fit according to a one-site competition model. Values are expressed as ±SEM, (ciPTEC, n=3; ciPTEC- […]
OAT1, n=4; ciPTEC-OAT3, n=2.
(1 picture or pasted object on this page, not shown here)

Data set [2] deals with T1, OAT3. The settings on record: substrate estrone sulfate, Xenopus-OAT3; read-out: IC50 (literature); cited from earlier work.
The target of a further data set is T2, OAT1 (Homo sapiens, UniProt Q4U2R8).
T2 sequence (Q4U2R8 1-563): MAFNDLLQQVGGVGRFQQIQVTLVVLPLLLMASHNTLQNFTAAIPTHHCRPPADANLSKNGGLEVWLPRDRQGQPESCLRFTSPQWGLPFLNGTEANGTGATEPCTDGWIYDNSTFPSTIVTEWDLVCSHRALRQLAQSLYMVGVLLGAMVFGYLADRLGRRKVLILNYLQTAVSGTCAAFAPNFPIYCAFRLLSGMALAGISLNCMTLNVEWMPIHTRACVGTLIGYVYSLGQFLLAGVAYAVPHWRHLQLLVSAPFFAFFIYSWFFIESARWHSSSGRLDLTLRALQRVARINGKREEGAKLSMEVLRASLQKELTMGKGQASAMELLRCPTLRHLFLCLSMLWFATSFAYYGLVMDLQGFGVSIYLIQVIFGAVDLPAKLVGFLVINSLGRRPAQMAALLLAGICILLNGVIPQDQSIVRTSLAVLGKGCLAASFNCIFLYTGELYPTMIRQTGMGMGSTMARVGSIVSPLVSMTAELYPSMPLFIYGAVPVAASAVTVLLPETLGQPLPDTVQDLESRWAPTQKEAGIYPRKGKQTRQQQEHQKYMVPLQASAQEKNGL
Briefly: Inhibition of OAT-mediated fluorescein uptake in ciPTEC-OAT1. Format: cell-based. Further details: host or cells: ciPTEC (human conditionally immortalized proximal tubule epithelial cells), lentiviral transduction. The method, then:
as §1, §2

Data set [3] concerns the target T1, OAT3. Further details: host or cells: ciPTEC (human conditionally immortalized proximal tubule epithelial cells), lentiviral transduction. The settings on record: substrate sitagliptin, CHO-OAT3; read-out: IC50 (literature); cited from earlier work.
Another data set concerns ciPTEC-OAT1. Briefly: MTT viability assay, ciPTEC-OAT1. It is filed as cell-based, human. On the technique in general: Formazan colour is commonly taken as a measure of viable cells.
Another data set has as its system ciPTEC-OAT3. Briefly: MTT viability assay, ciPTEC-OAT3. Format: cell-based, human. The method, then: Cell toxicity was analyzed further in presence of MRP and BCRP efflux inhibitors MK571 (5 μM) and KO143 (10 μM).
For another data set, the system named is ciPTEC parent. Briefly: MTT viability assay, ciPTEC parent. It is filed as cell-based, human. The settings on record: 50 μM (10× Cmax) with MK571 and KO143. As to the method: Briefly, monolayers of ciPTEC (96-wells) were exposed to antivirals in serum-free medium (SFM) on day 6 of maturation.
as §2

For data set [4] the following is noted: plasma, maximal free plasma concentration, 47 (zidovudine), cited from earlier work.
On the set-up of data set [5]: method as in PMID 19445515. The settings on record: cited from earlier work.

Each structure is given as a SMILES string. Read-outs that look alike come from different tables or passages of the source.

OCT2, sequence (O15244 whole entry): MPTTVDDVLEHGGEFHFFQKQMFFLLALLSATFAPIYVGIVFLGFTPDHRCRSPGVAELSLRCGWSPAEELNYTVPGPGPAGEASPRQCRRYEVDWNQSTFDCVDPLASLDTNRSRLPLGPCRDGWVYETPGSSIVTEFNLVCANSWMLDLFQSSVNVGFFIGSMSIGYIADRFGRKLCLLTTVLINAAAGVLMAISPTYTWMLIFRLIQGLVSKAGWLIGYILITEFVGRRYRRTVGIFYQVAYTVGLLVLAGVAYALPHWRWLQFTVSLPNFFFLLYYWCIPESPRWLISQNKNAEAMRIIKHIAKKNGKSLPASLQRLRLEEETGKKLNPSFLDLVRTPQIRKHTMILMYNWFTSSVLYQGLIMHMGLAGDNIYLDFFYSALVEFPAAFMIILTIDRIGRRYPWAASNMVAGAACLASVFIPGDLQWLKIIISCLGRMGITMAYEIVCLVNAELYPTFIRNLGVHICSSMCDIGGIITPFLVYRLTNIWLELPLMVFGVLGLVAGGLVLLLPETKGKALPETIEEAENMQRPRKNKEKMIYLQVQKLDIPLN

What is called IC50 is the midpoint of a concentration-inhibition curve. As to `CN/C(=N/CCSCc1nc[nH]c1C)NC#N` [Cimetidine, cimetidine], the IC50 is 215 ± 162 µM on OAT3 [1], 53 µM at OAT3 [2] and 79 µM on OAT3 [3]. Moreover, on OCT2, the “Inhibition of ASP+ uptake at OCT2” value is listed as “significant inhibition”. This molecule registered an IC50 at 10 min on OAT1 (human, ciPTEC-OAT1 cells (mature monolayers), probe fluorescein (1 μM)) of 654 ± 291 µM.
What is called Cmax is the peak of the concentration-time curve. As for `Cc1cn([C@H]2C[C@H](N=[N+]=[N-])[C@@H](CO)O2)c(=O)[nH]c1=O` [Zidovudine, zidovudine], the IC50 is 21 ± 4 µM against OAT3 [1] and 14 ± 7 µM at OAT1. In addition, the “Cell viability in presence of efflux inhibitors” value in the data set on ciPTEC-OAT1 (ciPTEC-OAT1, 50 μM (10× Cmax) with MK571 and KO143) is on record as “did not affect cell viability”; with ciPTEC-OAT3 (ciPTEC-OAT3, 50 μM (10× Cmax) with MK571 and KO143), “did not affect cell viability”; in the data set with ciPTEC parent, “did not affect cell viability”. Moreover, the “Cell viability (MTT), concentration and time dependence” value is “did not affect cell viability” with ciPTEC-OAT1 (ciPTEC-OAT1, 24, 48 and 72 h); “did not affect cell viability” in the data set with ciPTEC-OAT3 (ciPTEC-OAT3, 24, 48 and 72 h). Also, the Cmax is 5.5 µM in data set [4] (first-listed (lower) value per drug, ref 40 (adefovir), 42 (cidofovir), 45 (tenofovir)) and 6.6 µM in data set [4] (second-listed (higher) value per drug, ref 41 (adefovir), 43 (cidofovir), 46 (tenofovir)). For the same molecule, in data set [5], the “Fraction eliminated via the urine without metabolic alterations” value was 23%.

These data come from publication PMC4779111, “A Human Renal Proximal Tubule Cell Line with Stable Organic Anion Transporter 1 and 3 Expression Predictive for Antiviral-Induced Toxicity” (The AAPS Journal, 2016).
